The values below come from patent US8846908B2, “Tricyclic carbamate JAK inhibitors” (Rigel Pharmaceuticals, Inc., priority 2008, dated 2014).

For this test, the target named is BaF3 V617F cells (Homo sapiens, UniProt O60674, V617F, cells depend on it). The test can be described thus: Proliferation assay, BaF3 V617F cells (Cell Titer-Glo). Format: cell-based, mouse. Particulars: proliferation for 72 hours at 37° C., stated to show ability to inhibit JAK2 activity, read-out: IC50 (the source's name). How it is done: BaF3 V617F cells are maintained and plated in RPMI with 10% FBS. Plating density for these cells is 1×10^5 cells/mL.
Chain of BaF3 V617F cells (O60674 whole entry V617F): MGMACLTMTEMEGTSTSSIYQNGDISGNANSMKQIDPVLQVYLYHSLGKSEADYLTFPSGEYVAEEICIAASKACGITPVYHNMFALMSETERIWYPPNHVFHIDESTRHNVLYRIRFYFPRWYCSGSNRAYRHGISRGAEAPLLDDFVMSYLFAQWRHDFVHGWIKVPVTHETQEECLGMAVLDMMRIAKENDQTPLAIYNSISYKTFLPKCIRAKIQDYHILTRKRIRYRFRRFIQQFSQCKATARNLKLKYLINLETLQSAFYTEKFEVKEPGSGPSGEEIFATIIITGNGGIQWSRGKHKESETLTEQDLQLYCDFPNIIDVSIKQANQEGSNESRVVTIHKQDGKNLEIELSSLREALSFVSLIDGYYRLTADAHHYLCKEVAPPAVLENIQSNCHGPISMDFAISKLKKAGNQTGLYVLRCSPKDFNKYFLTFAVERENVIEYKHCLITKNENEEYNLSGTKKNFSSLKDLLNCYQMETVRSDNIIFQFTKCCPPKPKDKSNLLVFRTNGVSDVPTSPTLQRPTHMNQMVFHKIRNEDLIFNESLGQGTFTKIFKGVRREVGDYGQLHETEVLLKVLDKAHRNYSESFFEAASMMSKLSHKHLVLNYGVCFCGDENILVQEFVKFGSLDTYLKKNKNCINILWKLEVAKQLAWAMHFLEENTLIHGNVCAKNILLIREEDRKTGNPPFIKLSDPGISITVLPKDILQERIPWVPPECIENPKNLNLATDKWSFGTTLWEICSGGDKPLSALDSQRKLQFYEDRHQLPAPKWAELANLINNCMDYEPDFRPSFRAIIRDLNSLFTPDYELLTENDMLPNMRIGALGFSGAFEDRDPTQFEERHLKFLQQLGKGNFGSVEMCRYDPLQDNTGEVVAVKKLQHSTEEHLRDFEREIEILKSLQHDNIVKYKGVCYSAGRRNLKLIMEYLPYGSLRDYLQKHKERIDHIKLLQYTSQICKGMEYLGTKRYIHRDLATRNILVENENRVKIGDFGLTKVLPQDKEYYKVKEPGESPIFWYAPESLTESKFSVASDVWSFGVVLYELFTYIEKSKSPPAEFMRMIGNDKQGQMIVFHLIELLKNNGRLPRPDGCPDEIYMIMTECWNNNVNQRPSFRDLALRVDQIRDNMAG
The cells were resuspended in a corresponding medium at a required cell density (see above). 100μ of cell suspension was added to each well of a flat bottom 96 well white plate. The compound was serially diluted in DMSO from 5 mM in 3-fold dilutions, and then diluted 1:250 in the RPMI 1640 medium containing 5% FBS and pen/strep. 100 μL of resulting 2× compound solution was added per well in duplicate and the cells were allowed to proliferate for 72 hours at 37° C.
Proliferation was measured using Cell Titer-Glo. The substrate was thawed and allowed to come to room temperature. After removal of top 100 μL of medium from each well, 100 μL of the premixed Cell Titer-Glo reagent was added to each well. The plates were mixed on an orbital shaker for three minutes to induce lysis and incubated at ambient temperature for an additional five minutes to allow the signal to equilibrate. The Luminescence was read on the Wallac Plate Reader.
The results of the ability of the compounds of the invention to inhibit JAK2 activity, when tested in the above assay, are shown in the following Table 2 wherein the level of activity (i.e., the IC50) for each compound is indicated in Table 2. The compound numbers in Table 2 refers to the compounds disclosed herein as being prepared by the methods disclosed herein.
A general note: In ATP-based viability assays light output follows the ATP content of the culture.
For `Cc1cnc(Nc2ccc3c(c2)[C@H]2NC(=O)O[C@H]2C3)nc1Nc1ccc(OCc2ccccn2)cc1` [Compound 27, 5-Methyl-N2-[(3aR,8aS)-2-oxo-3,3a,8,8a-tetrahydro-2H-indeno[1,2-d]oxazol-5-yl]-N4-[4-(pyridin-2-ylmethoxy)phenyl]-2,4-pyrimidinediamine], the GI50 was 250 to 500 nM.

Regarding `Cc1cnc(Nc2ccc3c(c2)[C@@H]2NC(=O)O[C@@H]2C3)nc1Nc1ccc(OCc2ccccn2)cc1` [Compound 28, 5-Methyl-N2-[(3aS,8aR)-2-oxo-3,3a,8,8a-tetrahydro-2H-indeno[1,2-d]oxazol-5-yl]-N4-[4-(pyridin-2-ylmethoxy)phenyl]-2,4-pyrimidinediamine], the GI50 was 250 to 500 nM.

For the compound `O=C1N[C@@H]2c3cc(Nc4ncc(F)c(Nc5ccc(CCc6ccncc6)cc5)n4)ccc3C[C@@H]2O1` [Compound 29, 5-Fluoro-N2-[(3aR,8aS)-2-oxo-3,3a,8,8a-tetrahydro-2H-indeno[1,2-d]oxazol-5-yl]-N4-[4-[2-(pyridin-4-yl)ethyl]phenyl]-2,4-pyrimidinediamine], the GI50 was 250 to 500 nM.

As for `O=C1N[C@H]2c3cc(Nc4ncc(F)c(Nc5ccc(OCc6ccccn6)cc5)n4)ccc3C[C@H]2O1` [Compound 30, 5-Fluoro-N2-[(3aS,8aR)-2-oxo-3,3a,8,8a-tetrahydro-2H-indeno[1,2-d]oxazol-5-yl]-N4-[4-(pyridin-2-ylmethoxy)phenyl]-2,4-pyrimidinediamine], the GI50 was 1000 to 5000 nM.

In the case of `Cc1cnc(Nc2ccc3c(c2)[C@H]2NC(=O)O[C@H]2C3)nc1Nc1ccc(OCc2cccnc2)cc1` [Compound 31, 5-Methyl-N2-[(3aR,8aS)-2-oxo-3,3a,8,8a-tetrahydro-2H-indeno[1,2-d]oxazol-5-yl]-N4-[4-(pyridin-3-ylmethoxy)phenyl]-2,4-pyrimidinediamine], the GI50 lay in the range of 250 to 500 nM.

Regarding `Cc1cnc(Nc2ccc3c(c2)[C@@H]2NC(=O)O[C@@H]2C3)nc1Nc1ccc(OCc2cccnc2)cc1` [Compound 32, 5-Methyl-N2-[(3aS,8aR)-2-oxo-3,3a,8,8a-tetrahydro-2H-indeno[1,2-d]oxazol-5-yl]-N4-[4-(pyridin-3-ylmethoxy)phenyl]-2,4-pyrimidinediamine], the GI50 is 250 to 500 nM.

Regarding `O=C1N[C@H]2c3cc(Nc4ncc(F)c(Nc5ccc(CCc6ccncc6)cc5)n4)ccc3C[C@H]2O1` [Compound 33, 5-Fluoro-N2-[(3aS,8aR)-2-oxo-3,3a,8,8a-tetrahydro-2H-indeno[1,2-d]oxazol-5-yl]-N4-[4-[2-(pyridin-4-yl)ethyl]phenyl]-2,4-pyrimidinediamine], the GI50 fell in the range of 250 to 500 nM.

Take `O=C1N[C@@H]2c3cc(Nc4ncc(Cl)c(Nc5cccc6c5CCC6)n4)ccc3CC2O1` (stereo partly drawn) [Compound 34, 5-Chloro-N4-(indan-4-yl]-5-methyl-N2-[(3aR,8aS)-2-oxo-3,3a,8,8a-tetrahydro-2H-indeno[1,2-d]oxazol-5-yl]-2,4-pyrimidinediamine]: the GI50 is ≥ 5000 nM.

For `Cc1cnc(Nc2ccc3c(c2)[C@H]2NC(=O)O[C@H]2C3)nc1Nc1cccc2c1CCC2` [Compound 35, N4-(Indan-4-yl]-5-methyl-N2-[(3aR,8aS)-2-oxo-3,3a,8,8a-tetrahydro-2H-indeno[1,2-d]oxazol-5-yl]-2,4-pyrimidinediamine], the GI50 is < 250 nM.

As to `O=C1N[C@@H]2c3cc(Nc4ncc(Cl)c(Nc5cccc6c5CCCC6)n4)ccc3C[C@@H]2O1` [Compound 36, 5-Chloro-N2-[(3aR,8aS)-2-oxo-3,3a,8,8a-tetrahydro-2H-indeno[1,2-d]oxazol-5-yl]-N4-(5,6,7,8-tetrahydronaphthalen-1-yl)2,4-pyrimidinediamine], the GI50 lay within 250 to 500 nM.

With `Cc1cnc(Nc2ccc3c(c2)[C@H]2NC(=O)O[C@H]2C3)nc1Nc1cccc2c1CCCC2` [Compound 37, 5-Methyl-N2-[(3aR,8aS)-2-oxo-3,3a,8,8a-tetrahydro-2H-indeno[1,2-d]oxazol-5-yl]-N4-(5,6,7,8-tetrahydronaphthalen-1-yl)-2,4-pyrimidinediamine], the GI50 is < 250 nM.

With `Cc1cnc(Nc2ccc3c(c2)[C@H]2NC(=O)CO[C@H]2C3)nc1Nc1ccc2c(c1)N(C)C(=O)C(C)(C)O2` [Compound 38, 5-Methyl-N2-[(4aR,9aS)-3-oxo-2,3,4,4a,9a-hexahydroindeno[2,1-b][1,4]oxazin-6-yl]-N4-(2,2,4-trimethyl-3-oxo-benz[1,4]oxazin-6-yl)-2,4-pyrimidinediamine], the GI50 was in the range of 250 to 500 nM.

Turning to `Cc1cnc(Nc2ccc3c(c2)[C@H]2NC(=O)CO[C@H]2C3)nc1Nc1ccc(CNS(=O)(=O)C2CC2)cc1` [Compound 39, N4-[4-[[N-(Cyclopropylsulfonyl)amino]methyl]phenyl]-5-methyl-N2-[(4aR,9aS)-3-oxo-2,3,4,4a,9a-hexahydroindeno[2,1-b][1,4]oxazin-6-yl]-2,4-pyrimidinediamine], the GI50 was 250 to 500 nM.

`O=C1CO[C@H]2Cc3ccc(Nc4ncc(Cl)c(Nc5ccc(CNS(=O)(=O)C6CC6)cc5)n4)cc3[C@H]2N1` [Compound 40, 5-Chloro-N4-[4-[[N-(cyclopropylsulfonyl)amino]methyl]phenyl]-N2-[(4aR,9aS)-3-oxo-2,3,4,4a,9a-hexahydroindeno[2,1-b][1,4]oxazin-6-yl]-2,4-pyrimidinediamine]: the GI50 was < 250 nM.
